# Results from ChEMBL document CHEMBL1201862, “PubChem BioAssay data set” (2004).
#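 A five-concentration, 48-hour dose response in 96-well plates underlies each endpoint, interpolated linearly between surrounding concentrations. GI50 marks 50% less growth.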 The source made the active and inactive calls. No stated cut-off is given here; in the data, active = GI50 up to about 1.1 µM and inactive = higher.
# Legend:
# Assay in all cases: inhibition of tumour cell growth, NCI panel, 48 h
# [1] = system: SK-OV-3
# [2] = system: OVCAR-5
# [3] = system: SF-295
# [4] = system: KM-20L2
# [5] = system: OVCAR-3
# [6] = system: DMS-273
# [7] = system: CCRF-CEM
# [8] = system: KM12
# [9] = system: SF-268
# [10] = system: TK-10
# [11] = system: SK-MEL-2
# [12] = system: RPMI-8226
# [13] = system: HOP-92
# [14] = system: SR
# [15] = system: NCI-H522
# [16] = system: CAKI-1
# [17] = system: DMS-114
Compound,GI50 [1],GI50 [2],GI50 [3],GI50 [4],GI50 [5],GI50 [6],GI50 [7],GI50 [8],GI50 [9],GI50 [10],GI50 [11],GI50 [12],GI50 [13],GI50 [14],GI50 [15],GI50 [16],GI50 [17]
COc1ccc(/C(=C/n2ccnc2)C(O)c2ccc(OC)c(OC)c2)cc1OC (configuration not stated),> 100 µM (inactive),> 100 µM (inactive),> 100 µM (inactive),> 100 µM (inactive),> 100 µM (inactive),> 100 µM (inactive),26.7 µM (inactive),> 100 µM (inactive),> 100 µM (inactive),> 100 µM (inactive),> 100 µM (inactive),70.6 µM (inactive),30.6 µM (inactive),12.3 µM (inactive),,,
CC1=NC(C(C)C)C(=O)O1 (configuration not stated),> 100 µM (inactive),> 100 µM (inactive),> 100 µM (inactive),> 100 µM (inactive),> 100 µM (inactive),56 µM (inactive),> 100 µM (inactive),> 100 µM (inactive),45.1 µM (inactive),> 100 µM (inactive),,22.1 µM (inactive),> 100 µM (inactive),,> 100 µM (inactive),> 100 µM (inactive),24.6 µM (inactive)
O=C(O)C(CS)Nc1c2ccccc2[n+]([O-])c2ccccc12 (configuration not stated),> 100 µM (inactive),> 100 µM (inactive),> 100 µM (inactive),> 100 µM (inactive),> 100 µM (inactive),> 100 µM (inactive),> 100 µM (inactive),> 100 µM (inactive),> 100 µM (inactive),> 100 µM (inactive),> 100 µM (inactive),29.1 µM (inactive),,,56.9 µM (inactive),> 100 µM (inactive),> 100 µM (inactive)
Cc1ccc2ccc(-c3ccccc3)c3c2c1C(=O)c1ccccc1C3=O,41.7 µM (inactive),> 100 µM (inactive),93.1 µM (inactive),> 100 µM (inactive),71.8 µM (inactive),53.8 µM (inactive),> 100 µM (inactive),> 100 µM (inactive),45.5 µM (inactive),> 100 µM (inactive),> 100 µM (inactive),> 100 µM (inactive),26.1 µM (inactive),> 100 µM (inactive),36.1 µM (inactive),,> 100 µM (inactive)
CN(C)CCC(CCN(C)C)=NO,> 100 µM (inactive),,> 100 µM (inactive),> 100 µM (inactive),> 100 µM (inactive),> 100 µM (inactive),> 100 µM (inactive),> 100 µM (inactive),> 100 µM (inactive),> 100 µM (inactive),> 100 µM (inactive),> 100 µM (inactive),,,> 100 µM (inactive),> 100 µM (inactive),> 100 µM (inactive)
CN(C)CC(=O)N1CCc2c([nH]c3ccccc23)C1c1cccnc1 (configuration not stated),> 100 µM (inactive),> 100 µM (inactive),0.0498 µM (active),> 100 µM (inactive),> 100 µM (inactive),0.0187 µM (active),> 100 µM (inactive),> 100 µM (inactive),> 100 µM (inactive),> 100 µM (inactive),,> 100 µM (inactive),26.9 µM (inactive),> 100 µM (inactive),> 100 µM (inactive),> 100 µM (inactive),> 100 µM (inactive)
COC1CCCc2c(OC(C)=O)ccc(OC(C)=O)c21 (configuration not stated),> 100 µM (inactive),> 100 µM (inactive),,> 100 µM (inactive),> 100 µM (inactive),,,> 100 µM (inactive),> 100 µM (inactive),> 100 µM (inactive),> 100 µM (inactive),,19.6 µM (inactive),> 100 µM (inactive),,> 100 µM (inactive),> 100 µM (inactive)
O=S(O)CCCCSSCc1ccccc1CSSCCCCS(=O)O,> 100 µM (inactive),95.1 µM (inactive),17 µM (inactive),61 µM (inactive),10.5 µM (inactive),21.1 µM (inactive),3.88 µM (inactive),19 µM (inactive),12.5 µM (inactive),43.4 µM (inactive),35.2 µM (inactive),10.8 µM (inactive),21.9 µM (inactive),,4.43 µM (inactive),25.8 µM (inactive),14.9 µM (inactive)
O=C(O)c1ccccc1NS(=O)(=O)c1ccc(Cl)cc1,> 100 µM (inactive),> 100 µM (inactive),,> 100 µM (inactive),,> 100 µM (inactive),> 100 µM (inactive),,> 100 µM (inactive),> 100 µM (inactive),> 100 µM (inactive),> 100 µM (inactive),19 µM (inactive),,54 µM (inactive),> 100 µM (inactive),> 100 µM (inactive)
C=C1C(=O)O[C@H]2[C@H]1[C@H](OC(=O)/C(C)=C\C)CC(=C)[C@@H]1[C@H](O)[C@H]3O[C@@]3(C)[C@@]12O [EUPATUNDIN],> 100 µM (inactive),,> 100 µM (inactive),> 100 µM (inactive),> 100 µM (inactive),> 100 µM (inactive),> 100 µM (inactive),> 100 µM (inactive),> 100 µM (inactive),> 100 µM (inactive),> 100 µM (inactive),> 100 µM (inactive),> 100 µM (inactive),> 100 µM (inactive),> 100 µM (inactive),> 100 µM (inactive),> 100 µM (inactive)
